From patent US12234238B2, “Antimicrobial compounds and methods of making and using the same” (BIOVERSYS AG, priority 2017, dated 2025)

Key:
[1] = tested on: Staphylococcus aureus (S. aureus) 11540 strain; assay: standard microdilution assay to determine minimum inhibitory concentrations (MICs), S. aureus; type: cell-based
Protocol: (§1) The in vitro activity of the compounds of the present disclosure can be determined. Antimicrobial testing is typically performed to determine the minimum inhibitory concentration (MIC). Minimum inhibitory concentrations (MICs) are determined by the microdilution method in a final volume of 100 μl according to protocols outlined by The Clinical and Laboratory Standards Institute (CLSI). Performance standards for reference strains are assessed within the same experimental design to maintain quality control. See, for example, Clinical Laboratory Standards Institute: Methods for dilution antimicrobial susceptibility tests for bacteria that grow aerobically M7-A8. Approved Standard-Eighth Edition. Wayne, PA: CLSI; December 2008: and Clinical Laboratory Standards Institute: Performance Standards for Antimicrobial Susceptibility Testing M100-S20; Approved Standard-Twentieth Edition. Wayne, PA: CLSI; June 2010. The compounds of the present disclosure were tested for antimicrobial activity. The Compounds 1-122 were run against Eschericia coli (E. coli) strain ATCC25922 and against Staphylococcus aureus (S. aureus) 11540 strain using a standard microdilution assay to determine minimum inhibitory concentrations (MICs). […] It will be recognized by one skilled in the art that the compounds can be assessed against other bacterial organisms and that the presentation of data for activity against Eschericia coli and Staphylococcus aureus are illustrative and in no way is intended to limit the scope of the present disclosure. The compounds of the present disclosure can be assayed against a range of other microorganisms depending upon the performance activity desired to be gathered. Furthermore, the “+” and “−” representation and the selection of a cutoff value of 16 micrograms/mL is also illustrative and in no way is intended to limit the scope of the present disclosure.

[2] = tested on: Eschericia coli (E. coli) strain ATCC25922; assay: standard microdilution assay to determine minimum inhibitory concentrations (MICs), E. coli; type: cell-based; conditions: Escherichia coli
Protocol: as §1

SMILES	MIC [1] [µg/mL]	MIC [2] [µg/mL]
N=C(N)SCC[C@@H]1CCC[C@@H](c2ccc(-n3cc4cc(-c5cc(CCC[C@@H](N)C6CC6)cc(Cl)c5F)[nH]c4nc3=O)cc2)N1 [Compound 1]	≤ 16	≤ 16
C[C@H](N)CCCc1cc(Cl)c(F)c(-c2cc3cn(-c4ccc([C@@H]5CCC[C@@H](CCSC6=NCCN6)N5)cc4)c(=O)nc3[nH]2)c1 [Compound 2]	≤ 16	≤ 16
N[C@H](CCCc1cc(Cl)c(F)c(-c2cc3cn(-c4ccc([C@@H]5CCC[C@@H](CCSC6=NCCN6)N5)cc4)c(=O)nc3[nH]2)c1)C1CC1 [Compound 3]	≤ 16	≤ 16
C[C@H](N)CCCc1cc(Cl)c(F)c(-c2cc3cn(-c4ccc([C@H](C)NCCCSC(=N)N)cc4)c(=O)nc3[nH]2)c1 [Compound 9]	≤ 16	≤ 16
N=C(N)SCC[C@@H]1CCC[C@@H](c2ccc(-n3cc4cc(-c5cc(CCC[C@@H](N)COC(=O)c6ccccc6)cc(Cl)c5F)[nH]c4nc3=O)cc2)N1 [Compound 10]	≤ 16	≤ 16
C[C@H](NCC[C@H](C)SC(=N)N)c1ccc(-n2cc3cc(-c4cc(CCC[C@@H](N)C5CC5)cc(Cl)c4F)[nH]c3nc2=O)cc1 [Compound 11]	≤ 16	≤ 16
N=C(N)SCCCN1CC=CC[C@H]1c1ccc(-n2cc3cc(-c4cc(CCC[C@@H](N)C5CC5)cc(Cl)c4F)[nH]c3nc2=O)cc1 [Compound 15]	≤ 16	≤ 16
C[C@H](N)CCCc1cc(Cl)c(F)c(-c2cc3cn(-c4ccc([C@@H]5CC=C[C@@H](CCSC(=N)N)N5)cc4)c(=O)nc3[nH]2)c1 [Compound 16]	≤ 16	≤ 16
C[C@H](N)CCCc1cc(Cl)c(F)c(-c2cc3cn(-c4ccc([C@@H]5CCC[C@@H](CCSC(=N)N)N5)c(F)c4)c(=O)nc3[nH]2)c1 [Compound 21]	≤ 16	≤ 16
N=C(N)SCC[C@@H]1CCC[C@@H](c2ccc(-n3cc4cc(-c5cc(CCC[C@@H](N)CO)cc(Cl)c5F)[nH]c4nc3=O)cc2F)N1 [Compound 22]	≤ 16	≤ 16
C[C@H](N)Cc1cc(Cl)c(F)c(-c2cc3cn(-c4ccc([C@@H]5CCC[C@@H](CCSC(=N)N)N5)cc4)c(=O)nc3[nH]2)c1 [Compound 23]	≤ 16	≤ 16
C[C@@H](N)Cc1cc(Cl)c(F)c(-c2cc3cn(-c4ccc([C@@H]5CCC[C@@H](CCSC(=N)N)N5)cc4)c(=O)nc3[nH]2)c1 [Compound 24]	≤ 16	≤ 16
N=C(N)SCC[C@@H]1CCC[C@@H](c2ccc(-n3cc4cc(-c5cc(CCC[C@@H](N)C6CC6)cc(Cl)c5F)[nH]c4nc3=O)cc2F)N1 [Compound 25]	≤ 16	≤ 16
C[C@H](N)CCCc1cc(Cl)c(F)c(-c2cc3cn(-c4ccc([C@H](C)NCC[C@H](C)SC(=N)N)cc4)c(=O)nc3[nH]2)c1 [Compound 26]	≤ 16	≤ 16
C[C@H](NCCCSC(=N)N)c1ccc(-n2cc3cc(-c4cc(CCC[C@@H](N)C5CC5)cc(Cl)c4F)[nH]c3nc2=O)cc1 [Compound 27]	≤ 16	≤ 16
C[C@H](O)CNCc1cc(Cl)c(F)c(-c2cc3cn(-c4ccc([C@@H]5CCC[C@@H](CCSC(=N)N)N5)cc4)c(=O)nc3[nH]2)c1 [Compound 30]	≤ 16	≤ 16
C[C@H](N)CCCN1CCCC1c1cc2cn(-c3ccc([C@@H]4CCC[C@@H](CCSC(=N)N)N4)cc3)c(=O)nc2[nH]1 (some centres unmarked) [Compound 31]	≤ 16	≤ 16
C[C@H](N)CCCN1CCCCC1c1cc2cn(-c3ccc([C@@H]4CCC[C@@H](CCSC(=N)N)N4)cc3)c(=O)nc2[nH]1 (some centres unmarked) [Compound 33]	≤ 16	≤ 16
N=C(N)SCC[C@@H]1CCC[C@@H](c2ccc(-n3cc4cc(-c5cc(CCC[C@@H](N)COc6ccccc6)cc(Cl)c5F)[nH]c4nc3=O)cc2)N1 [Compound 35]	≤ 16	≤ 16
C=C[C@H](N)CCCc1cc(Cl)c(F)c(-c2cc3cn(-c4ccc([C@@H]5CCC[C@@H](CCSC(=N)N)N5)c(F)c4)c(=O)nc3[nH]2)c1 [Compound 36]	≤ 16	≤ 16
C[C@@H](O)CNCc1cc(Cl)c(F)c(-c2cc3cn(-c4ccc([C@@H]5CCC[C@@H](CCSC(=N)N)N5)cc4)c(=O)nc3[nH]2)c1 [Compound 38]	≤ 16	≤ 16
COc1ccc(OC[C@H](N)CCCc2cc(Cl)c(F)c(-c3cc4cn(-c5ccc([C@@H]6CCC[C@@H](CCSC(=N)N)N6)cc5)c(=O)nc4[nH]3)c2)cc1 [Compound 39]	≤ 16	≤ 16
Cc1ccccc1OC[C@H](N)CCCc1cc(Cl)c(F)c(-c2cc3cn(-c4ccc([C@@H]5CCC[C@@H](CCSC(=N)N)N5)cc4)c(=O)nc3[nH]2)c1 [Compound 40]	≤ 16	≤ 16
CNC(=N)SCC[C@@H]1CCC[C@@H](c2ccc(-n3cc4cc(-c5cc(CCC[C@H](C)N)cc(Cl)c5F)[nH]c4nc3=O)cc2)N1 [Compound 41]	≤ 16	≤ 16
C/N=C(\NC)SCC[C@@H]1CCC[C@@H](c2ccc(-n3cc4cc(-c5cc(CCC[C@H](C)N)cc(Cl)c5F)[nH]c4nc3=O)cc2)N1 [Compound 43]	≤ 16	≤ 16
C[C@H](N)CCCc1cc(Cl)c(F)c(-c2cc3cn(-c4ccc([C@@H]5CCC[C@@H](CCSC(=N)N(C)C)N5)cc4)c(=O)nc3[nH]2)c1 [Compound 44]	≤ 16	≤ 16
C=C[C@H](N)CCCc1cc(Cl)c(F)c(-c2cc3cn(-c4ccc([C@@H]5CCC[C@@H](CCSC(=N)N)N5)cc4)c(=O)nc3[nH]2)c1 [Compound 45]	≤ 16	≤ 16

Other lines, results leading:

MIC [1] [µg/mL]	MIC [2] [µg/mL]	SMILES
≤ 16	≤ 16	C[C@H](N)CCCc1cc(Cl)c(F)c(-c2cc3cn(-c4ccc([C@@H]5CCC[C@@H](CCSC(=N)N)N5CCCF)cc4)c(=O)nc3[nH]2)c1 [Compound 4]
≤ 16	≤ 16	N=C(N)SCC[C@@H]1CCC[C@@H](c2ccc(-n3cc4cc(-c5cc(CCC[C@@H](N)C6CC6)cc(Cl)c5F)[nH]c4nc3=O)cc2)N1CCCF [Compound 5]
≤ 16	≤ 16	C[C@H](N)CCCc1cc(Cl)c(F)c(-c2cc3cn(-c4ccc([C@@H]5CCC[C@@H](CCSC(=N)N)N5CCCO)cc4)c(=O)nc3[nH]2)c1 [Compound 6]
≤ 16	≤ 16	N=C(N)SCC[C@@H]1CCC[C@@H](c2ccc(-n3cc4cc(-c5cc(CCC[C@@H](N)C6CC6)cc(Cl)c5F)[nH]c4nc3=O)cc2)N1CCCO [Compound 7]
≤ 16	≤ 16	N=C(N)SCC[C@@H]1CCC[C@@H](c2ccc(-n3cc4cc(-c5cc(CCC[C@@H](N)CO)cc(Cl)c5F)[nH]c4nc3=O)cc2)N1 [Compound 8]
≤ 16	≤ 16	C[C@H](N)CCCc1cc(Cl)c(F)c(-c2cc3cn(-c4ccc([C@@H]5CCCCN5CCCSC(=N)N)cc4)c(=O)nc3[nH]2)c1 [Compound 12]
≤ 16	≤ 16	N=C(N)SCCCN1CCCC[C@H]1c1ccc(-n2cc3cc(-c4cc(CCC[C@@H](N)C5CC5)cc(Cl)c4F)[nH]c3nc2=O)cc1 [Compound 13]
≤ 16	≤ 16	C[C@H](N)CCCc1cc(Cl)c(F)c(-c2cc3cn(-c4ccc([C@@H]5CC=CCN5CCCSC(=N)N)cc4)c(=O)nc3[nH]2)c1 [Compound 14]
≤ 16	≤ 16	C[C@H](N)CCCc1cc(Cl)c(F)c(-c2cc3cn(-c4ccc([C@@H]5CCC[C@@H](CCO)N5CCCSC(=N)N)cc4)c(=O)nc3[nH]2)c1 [Compound 17]
≤ 16	≤ 16	N=C(N)SCCCN1[C@H](CCO)CCC[C@H]1c1ccc(-n2cc3cc(-c4cc(CCC[C@@H](N)C5CC5)cc(Cl)c4F)[nH]c3nc2=O)cc1 [Compound 18]
≤ 16	≤ 16	C[C@H](N)CCCc1cc(Cl)c(F)c(-c2cc3cn(-c4ccc([C@@H]5CCC[C@@H](CCSC(=N)N)N5CCCSC(=N)N)cc4)c(=O)nc3[nH]2)c1 [Compound 19]
≤ 16	≤ 16	N=C(N)SCCCN1[C@H](CCSC(=N)N)CCC[C@H]1c1ccc(-n2cc3cc(-c4cc(CCC[C@@H](N)C5CC5)cc(Cl)c4F)[nH]c3nc2=O)cc1 [Compound 20]
≤ 16	≤ 16	C[C@H](O)CCCc1cc(Cl)c(F)c(-c2cc3cn(-c4ccc([C@@H]5CCC[C@@H](CCSC(=N)N)N5)cc4)c(=O)nc3[nH]2)c1 [Compound 28]
≤ 16	≤ 16	C[C@@H](N)CCc1cc(Cl)c(F)c(-c2cc3cn(-c4ccc([C@@H]5CCC[C@@H](CCSC(=N)N)N5)cc4)c(=O)nc3[nH]2)c1 [Compound 29]
≤ 16	≤ 16	C[C@H](N)CCc1cc(Cl)c(F)c(-c2cc3cn(-c4ccc([C@@H]5CCC[C@@H](CCSC(=N)N)N5)cc4)c(=O)nc3[nH]2)c1 [Compound 37]
≤ 16	≤ 16	C[C@H](N)CCCc1cc(Cl)c(F)c(-c2cc3cn(-c4ccc([C@@H]5CCC[C@@H](CCSC(=N)N)N5C)cc4)c(=O)nc3[nH]2)c1 [Compound 42]
